Publication PMC3176258, “A genomic biomarker signature can predict skin sensitizers using a cell-based in vitro alternative to animal tests” (BMC Genomics, 2011)
In brackets after ≈: the same amount, converted by molar mass. Read-outs that look alike come from different tables or passages of the source.

Columns and labels:
[1] = tested on: MUTZ-3 cells; assay: Cytotoxicity by propidium iodide, relative viability
Description: A panel of 40 chemical compounds, consisting of 20 sensitizers and 20 non-sensitizers were used for cell stimulations. […] All chemicals were from Sigma-Aldrich, St. Louis, MO, USA. Compounds were dissolved in either dimethyl sulfoxide (DMSO) or distilled water. Prior to stimulations, the cytotoxicity of all compounds was monitored, using propidium iodide (PI) (BD Biosciences, San Diego, CA) using protocol provided by the manufacturer. The relative viability of stimulated cells was calculated as [drawing 1]
For toxic compounds, the concentration yielding 90% relative viability (Rv90) was used. For non-toxic compounds, a concentration of 500 μM was used. For non-toxic compounds that were insoluble at 500 μM in medium, the highest soluble concentration was used. For compounds dissolved in DMSO, the final concentration of DMSO in each well was 0.1%.
The human myeloid leukemia-derived cell line MUTZ-3 (DSMZ, Braunschweig, Germany) was maintained in α-MEM (Thermo Scientific Hyclone, Logan, UT) supplemented with 20% (volume/volume) fetal calf serum (Invitrogen, Carlsbad, CA) and 40 ng/ml rhGM-CSF (Bayer HealthCare Pharmaceuticals, Seattle, WA), as described. Cultures were maintained at 200.000 cells/ml during expansion, with a media change every 3-4 days. No differentiating steps were performed. Instead, the proliferating progenitor MUTZ-3 was used for stimulations, as delivered by the supplier. Prior to each experiment, the cells were immunophenotyped using flow cytometry as a quality control. Cells were seeded in 6-well plates at 200.000 cells/ml. Stock solutions of each compound were prepared in either DMSO or distilled water, and were subsequently diluted so the in-well concentrations corresponded to the Rv90 value, and in-well concentrations of DMSO were 0.1%. Cells were incubated for 24 h at 37°C and 5% CO2. Thereafter, cells were harvested and analyzed by flow cytometry. In parallel, harvested cells were lysed in TRIzol reagent (Invitrogen) and stored at -20°C until RNA extraction. Stimulations with chemicals were performed in three individual experiments, so that triplicates samples were obtained.

[2] = tested on: MUTZ-3 cells; assay: CD86 cell surface expression by flow cytometry after 24 h stimulation; assay type: cell-based, human; conditions: for CD86 surface expression: flow cytometry, Student's t test
Description: CD86 is the most extensively studied biomarker for sensitization to date, using e.g. monocyte derived dendritic cells (MoDCs) or human cell lines and their progenitors, such as THP-1, U-937 and KG-1. Thus, as a reference, cell surface expression of CD86 was measured with flow cytometry after 24 h stimulation, using 20 sensitizers and 20 non-sensitizers, as well as vehicle controls (Figure 2). […]. […] Consequently, CD86 cannot classify skin sensitizers, using a system based on MUTZ-3 cells.
No differentiating steps were performed. […] Thereafter, cells were harvested and analyzed by flow cytometry.
All cell surface staining and washing steps were performed in PBS containing 1% BSA (w/v). Cells were incubated with specific mouse mAbs for 15 min at 4°C. The following mAbs were used for flow cytometry: FITC-conjugated CD1a (DakoCytomation, Glostrup, Denmark), CD34, CD86, and HLA-DR (BD Biosciences), PE-conjugated CD14 (DakoCytomation), CD54 and CD80 (BD Biosciences). Mouse IgG1, conjugated to FITC or PE were used as isotype controls (BD Biosciences) and PI was used to assess cell viability. FACSDiva software was used for data acquisition with FACSCanto II instrument (BD Bioscience). 10,000 events were acquired and gates were set based on light scatter properties to exclude debris and nonviable cells. Further data analysis was performed using FCS Express V3 (De Novo Software, Los Angeles, CA).

[3] = tested on: MUTZ-3 cells; assay: Transcriptional profiling (Affymetrix Human Gene 1.0 ST arrays, PCA) after 24 h stimulation; assay type: cell-based; conditions: for Potency predicted by Prediction Signature gene expression profile: 200 transcripts, PCA, compared with LLNA potency, Figure 4C
[4] = tested on: mice; conditions: cited from earlier work
[5] = physchem; conditions: aqueous buffer, kinetic from dmso stock
[6] = Max solubility in medium; conditions: aqueous buffer, kinetic from dmso stock
[7] = concentration yielding 90% relative viability, propidium iodide
[8] = 1137 genes, multi-group ANOVA, Figure 3D
[9] = sensitizing potency category according to LLNA, ref (14, 15, 45-48)
[10] = 1010 transcripts, one-way ANOVA, one or more replicate, Figure 3B

In the case of `O=[N+]([O-])c1ccc(Cl)c([N+](=O)[O-])c1` [2,4-Dinitrochlorobenzene], the Rv90 [1, 7] is reported as 4 µM, the CD86 surface expression [2] is reported as “significantly up-regulated” and the “PCA grouping, each individual stimulation” value [3, 8] is reported as “group together, separate from the negative group”. For the same compound, the Potency ([4]; mouse, in vivo) was “Extreme [15]”.
In the case of `Nc1ccccc1O` [2-Aminophenol], the Rv90 [1, 7] is reported as 100 µM, the CD86 surface expression [2] is reported as “significantly up-regulated” and the “frequency of CD86-positive cells” value ([2]; one representative experiment out of three, Figure 2A) is reported as 60.4%. The “PCA grouping, each individual stimulation” value [3] was “group together, separate from the negative group” and the Potency ([4]; mouse, in vivo) was “Strong [46]”.
For `C=CC(=O)OCCO` [2-Hydroxyethyl acrylate], the Rv90 [1, 7] was 100 µM, the CD86 surface expression [2] was “significantly up-regulated” and the “Potency predicted by Prediction Signature gene expression profile” value (“Potency predicted” for short) [3] was “showed resemblance to strong and extreme sensitizers”. The “PCA grouping, each individual stimulation” value [3, 8] was “group together, separate from the negative group”.
With `Sc1nc2ccccc2s1` [2-Mercaptobenzothiazole] the CD86 surface expression [2] was “significantly up-regulated”, the “PCA grouping, each individual stimulation” value [3, 8] was “group together, separate from the negative group” and the solubility [5] was 250 µM (≈ 41.8 µg/mL). The Potency [4, 9] was “Moderate [46]”.
For `Nc1ccc(N)c([N+](=O)[O-])c1` [2-nitro-1,4-Phenylendiamine], the CD86 surface expression [2] was “significantly up-regulated” and the “PCA grouping, each individual stimulation” value [3, 8] was “group together, separate from the negative group”.
With `O=Cc1ccccc1` [Benzaldehyde] the solubility [5] was 250 µM (≈ 26.5 µg/mL).
Compound `Clc1ccccc1` [Chlorobenzene] has a solubility [6] of 98 µM (≈ 11 µg/mL).
For `O=C/C=C/c1ccccc1` [Cinnamaldehyde], the Rv90 [1, 7] is listed as 120 µM, the CD86 surface expression [2] is listed as “significantly up-regulated” and the Potency [4, 9] is listed as “Moderate [47]”.
For `OC/C=C/c1ccccc1` [Cinnamic alcohol], the “PCA grouping, each individual stimulation” value [3, 8] is listed as “group together, separate from the negative group”, the solubility [5] is listed as 500 µM (≈ 67.1 µg/mL) and the Potency [4, 9] is listed as “Weak [46]”.
For `NCCN` [Ethylendiamine], the “Potency predicted” value [3] is given as “grouped together with weak sensitizers”, the “PCA grouping, sensitizing vs. non-sensitizing chemicals” value [3, 10] is given as “grouped together with the control group” and the Potency ([4]; mouse, in vivo) is given as “Moderate [14]”.
For `C=CCc1ccc(O)c(OC)c1` [Eugenol], the Rv90 ([1]; human, 24 h) is given as 300 µM, the “PCA grouping, sensitizing vs. non-sensitizing chemicals” value [3, 10] is given as “grouped together with the control group” and the Potency ([4]; mouse, in vivo) is given as “Weak [47]”.
For `C=O` [Formaldehyde], the Rv90 [1] is given as 80 µM, the “PCA grouping, each individual stimulation” value [3] is given as “group together, separate from the negative group” and the Potency ([4]; mouse, in vivo) is given as “Strong [15]”.
For `O=CC=O` [Glyoxal], the Rv90 [1] was 300 µM, the “Potency predicted” value [3] was “grouped together with weak sensitizers” and the “PCA grouping, sensitizing vs. non-sensitizing chemicals” value [3, 10] was “grouped together with the control group”. The Potency ([4]; mouse, in vivo) was “Moderate [46]”.
With `CCCCCCC(C=O)=Cc1ccccc1` [Hexylcinnamic aldehyde] the “Potency predicted” value [3] was “grouped together with weak sensitizers”, the “PCA grouping, sensitizing vs. non-sensitizing chemicals” value [3, 10] was “grouped together with the control group” and the solubility [5] was 32.3 µM (≈ 7 µg/mL). The Potency [4, 9] was “Moderate [15]”.
In the case of `CCCCCCCC(=O)O` [Octanoic acid], the “PCA grouping, sensitizing vs. non-sensitizing chemicals” value [3, 10] is reported as “grouped closely with the sensitizers”.
In the case of `CCO/C=C1\N=C(c2ccccc2)OC1=O` [Oxazolone], the Potency ([4]; mouse, in vivo) is given as “Extreme [15]”.
With `CC1(C)S[C@@H]2[C@H](NC(=O)Cc3ccccc3)C(=O)N2[C@H]1C(=O)O` [Penicillin G] the “PCA grouping, sensitizing vs. non-sensitizing chemicals” value [3, 10] was “grouped together with the control group”.
In the case of `Oc1ccccc1` [Phenol], the “PCA grouping, sensitizing vs. non-sensitizing chemicals” value [3] is reported as “grouped closely with the sensitizers”.
In the case of `[K+].[K+].[O]=[Cr](=[O])([O-])[O][Cr](=[O])(=[O])[O-]` [Potassium dichromate], the CD86 surface expression [2] is listed as “significantly up-regulated”, the “PCA grouping, each individual stimulation” value [3] is listed as “discrete profile” and the Potency ([4]; mouse, in vivo) is listed as “Extreme [14]”.
With `Oc1cccc(O)c1` [Resorcinol] the CD86 surface expression [2] was “significantly up-regulated”, the “PCA grouping, sensitizing vs. non-sensitizing chemicals” value [3, 10] was “grouped together with the control group” and the “PCA grouping, each individual stimulation” value [3, 8] was “group together, separate from the negative group”. The Potency [4, 9] was “Moderate [48]”.
Compound `CCCCCCCCCCCCOS(=O)(=O)[O-].[Na+]` [Sodium dodecyl sulphate] has a Rv90 [1] of 200 µM.
In the case of `O=C(O)c1ccc(O)cc1` [p-Hydroxybenzoic acid], the solubility [5] is reported as 250 µM (≈ 34.5 µg/mL).
For `Nc1ccc(N)cc1` [p-Phenylendiamine], the Rv90 [1] was 75 µM, the CD86 surface expression [2] was “significantly up-regulated” and the “PCA grouping, each individual stimulation” value [3, 8] was “group together, separate from the negative group”. The Potency [4, 9] was “Strong [47]”.
In the case of Isoeugenol, the “PCA grouping, sensitizing vs. non-sensitizing chemicals” value [3, 10] is reported as “grouped together with the control group”.
For Tween 80, the “PCA grouping, sensitizing vs. non-sensitizing chemicals” value [3, 10] was “grouped closely with the sensitizers”.
